Measurements reported in patent publication US4537719A, “4-Methylsulfonyl-azetidinone derivatives” (Ajinomoto Company Incorporated, priority 1981, dated 1985).

Molecular target: T1, β-lactamase (Enterobacter cloacae, UniProt P05364)
T1 construct: obtained by destruction of the microbial cells with ultrasonic waves; endogenous in cells
Experiment: β-lactamase inhibition (iodometric absorbance at 575 nm; β-lactamase solution obtained by ultrasonic destruction of microbial cells)
Format: biochemical
Details: Enterobacter cloacae used as the β-lactamase-producing microorganism; pH 7.0, 30° C., 20 minutes; sample concentration not given
Procedure: A phosphate buffer solution (pH 7.0, 0.5M, 0.2 ml), a sample*, which is a β-lactamase inhibiting agent, dissolved in the same buffer solution as mentioned above, and water (10 ml) were put in a test tube. In this tube, ampicillin (2 mM, 0.2 ml) in the case of penicillinase, and cephaloridine (2 mM, 0.2 ml) in the case of cephalosporinase, were added. This mixture was stirred moderately for 5 minutes at 30° C. in a thermostat. Microbial cells producing β-lactamase were collected, washed and suspended in the same buffer solution as above and thereto a β-lactamase solution (0.1 ml) obtained by destruction of the microbial cells with ultrasonic waves was added and reacted for 20 minutes.
The reaction was stopped by adding sodium tungstate (0.15M, pH 4.0, 1 ml) and an iodo reagent (3 ml) having iodine (0.1 mM), potassium iodide (1.6 mM) and 0.4% starch solution, (pH 6.0) was added thereto and was allowed to stand for 20 minutes. The absorbance was determined at 575 nm.
On the other hand, the same experiment as above without the sample (Control) was carried out and the absorbances were determined in the same manner as above.
From each determined value as obtained above, the difference between the absorbance of the blank and that of the sample, referred to as As, and the difference between the absorbance of the blank and that of the Control referred to as AB were obtained, and therefrom the inhibiting ratio was calculated by the following equation:
Inhibiting Ratio(%)=(AS/AB)×100
Some of the results as obtained above, in which Enterobacter cloacae was used as the β-lactamase-producing microorganism was used are as follows: […]

T1 sequence (P05364 21-381): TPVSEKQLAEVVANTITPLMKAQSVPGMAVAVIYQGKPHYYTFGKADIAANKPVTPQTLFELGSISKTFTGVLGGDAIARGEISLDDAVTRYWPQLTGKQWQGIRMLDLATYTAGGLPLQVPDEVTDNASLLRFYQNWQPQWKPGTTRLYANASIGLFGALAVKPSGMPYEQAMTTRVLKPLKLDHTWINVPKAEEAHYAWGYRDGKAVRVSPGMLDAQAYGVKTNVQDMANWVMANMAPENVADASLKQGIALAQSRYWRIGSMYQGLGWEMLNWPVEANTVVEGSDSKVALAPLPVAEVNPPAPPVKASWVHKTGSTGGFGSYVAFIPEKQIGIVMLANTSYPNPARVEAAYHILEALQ

Row | Compound | Inhibiting Ratio (%)
1 | COC(=O)C(C(=O)O)N1C(=O)CC1S(C)(=O)=O (stereo not shown) [Sample 2, 1-(1-carboxy-1-methoxycarbonylmethyl)-4-methylsulfonyl-2-azetidinone] | 51.4
2 | COC(=O)C(C(=O)O)N1C(=O)CC1SC (stereo not shown) [Sample 1, 1-(1-carboxy-1-methyoxycarbonylmethyl)-4-methylthio-2-azetidinone] | 46.2
3 | CC(C)=C(C(=O)O)N1C(=O)[C@@H](N)[C@H]1S(C)(=O)=O [Sample 4, (3R, 4R)-1-(1-carboxy-2-methylprope-1-nyl)-4-methylsulfonyl-3-amino-2-azetidinone] | 35.8
4 | CC(C)=C(C(=O)O)N1C(=O)[C@@H](NC(=O)[C@H](N)c2ccccc2)[C@H]1S(C)(=O)=O [Sample 3, (3R,4R)-1-(1-carboxy-2-methylprope-1-nyl)-4-methylsulfonyl-3-[D-(-)-α-aminophenylacetamide]-2-azetidinone] | 27.6
